Data published in US12116388B2, “Amylin receptor agonists” (Novo Nordisk A/S, priority 2022, dated 2024).
Starred links: 1 amine or outer side, 2 acyl side, 3 side chain; linkers in the order of their positions; H or OH if unused. Residues, ends and D or L forms follow the SMILES beside them. *: point of attachment. C18 diacid = O=C(O)CCCCCCCCCCCCCCCCC(=O)*; γGlu = O=C(O)[C@H](CCC(=O)[*:2])N[*:1]

What was measured:
[1] = Oral pharmacokinetic profiles in Beagle dogs (SNAC tablets); format: in vivo; conditions: oral tablet: 3 mg compound, 300 mg SNAC, 7.7 mg magnesium stearate; for half-life: male, dog, plasma, read-out: T½ (converted)
In short: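 Male Beagle dogs, fasted overnight, received an oral immediate-release tablet of 3 mg compound with 300 mg SNAC, 10 min after ~3.2 nmol/kg subcutaneous glucagon. EDTA plasma sampled up to 288 h post-dose; concentrations measured by ethanol protein precipitation and LC-MS for pharmacokinetic parameters.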

[2] = target: T1, human amylin receptor (hAMYR3) (Homo sapiens, UniProt O60896+P30988); experiment: Human amylin receptor (hAMYR3) in vitro potency assay, CRE-luciferase reporter in BHK cells; format: cell-based; conditions: BHK hAMYR3/CRE-Luc cells, 3 hours incubation, assay buffer with 1% ovalbumin
T1 construct: host or cells: BHK (Baby Hamster Kidney), Hollex-1 cell line further transfected with RAMP3
In short: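 Luminescence from a CRE-driven luciferase reporter reflects cAMP-mediated receptor activation. Peptides were serially diluted (7 concentrations, 7-fold steps, typically starting near 10 nM) in buffer with 1% ovalbumin and applied for 3 h at 37 °C to BHK cells co-expressing calcitonin receptor (a) and RAMP3.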

T1 sequence (P30988 25-474): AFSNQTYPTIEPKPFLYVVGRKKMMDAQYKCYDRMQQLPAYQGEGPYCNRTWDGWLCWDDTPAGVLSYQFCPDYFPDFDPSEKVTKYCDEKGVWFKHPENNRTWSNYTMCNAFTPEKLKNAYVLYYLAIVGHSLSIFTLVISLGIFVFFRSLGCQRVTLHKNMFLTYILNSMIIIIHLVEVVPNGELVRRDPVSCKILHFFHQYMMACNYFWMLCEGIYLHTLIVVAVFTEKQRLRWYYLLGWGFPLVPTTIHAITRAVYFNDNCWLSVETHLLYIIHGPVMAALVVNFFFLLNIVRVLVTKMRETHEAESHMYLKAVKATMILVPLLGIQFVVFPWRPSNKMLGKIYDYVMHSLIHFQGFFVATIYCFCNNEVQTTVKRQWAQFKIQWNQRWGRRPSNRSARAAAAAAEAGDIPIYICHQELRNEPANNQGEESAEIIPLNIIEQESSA
T1 sequence (O60896 24-148): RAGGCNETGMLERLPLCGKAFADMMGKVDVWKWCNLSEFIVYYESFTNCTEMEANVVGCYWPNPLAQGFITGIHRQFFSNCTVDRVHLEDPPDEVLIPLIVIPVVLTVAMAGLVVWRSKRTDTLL

Row | SMILES | half-life [1] [h] | AUC/D [1] [kg·h/L] | Cmax/D [1] [kg/L] | EC50 [2] [pM]
1 | CC[C@H](C)[C@H](NC(=O)[C@@H]1CCCN1C(=O)CNC(=O)[C@H](Cc1ccccc1)NC(=O)[C@H](CC(N)=O)NC(=O)[C@H](CC(=O)O)NC(=O)[C@H](CO)NC(=O)[C@H](CO)NC(=O)[C@H](Cc1c[nH]cn1)NC(=O)[C@H](Cc1c[nH]cn1)NC(=O)[C@H](CC(C)C)NC(=O)[C@H](Cc1ccccc1)NC(=O)[C@H](CCC(=O)O)NC(=O)[C@H](C)NC(=O)[C@H](CC(C)C)NC(=O)[C@H](CCCNC(=N)N)NC(=O)[C@H](C)NC(=O)[C@@H](NC(=O)[C@H](CCC(N)=O)NC(=O)[C@H](C)NC(=O)[C@@H](NC(=O)[C@H](CO)NC(=O)[C@H](CC(C)C)NC(=O)[C@H](Cc1c[nH]cn1)NC(=O)[C@H](CO)NC(=O)[C@H](C)NC(=O)CC[C@H](NC(=O)CCCCCCCCCCCCCCCCC(=O)O)C(=O)O)[C@@H](C)O)[C@@H](C)O)C(=O)N[C@@H](CC(C)C)C(=O)N1CCC[C@H]1C(=O)N1CCC[C@H]1C(=O)N[C@H](C(=O)N[C@@H](CC(=O)O)C(=O)N[C@H](C(=O)NCC(=O)N[C@@H](CO)C(=O)N[C@@H](CC(N)=O)C(=O)N[C@H](C(=O)N1CCC[C@H]1C(N)=O)[C@@H](C)O)C(C)C)[C@@H](C)O [Compound 14, N^1-[(4S)-4-carboxy-4-(17-carboxyheptadecanoylamino)butanoyl]-[Ala1,Ser2,His3,Leu4,Ser5,Ala7,Gln8,Ala10,Glu14,His17,Asp21,Pro25,Pro28,Pro29,Asp31,Pro37]-human amylin] ({C18 diacid-γGlu}-ASHLSTAQTARLAEFLHHSSDNFGPILPPTDVGSNTP-NH2) | 113 | 20.76 | 0.34 | 1.28
2 | CC[C@H](C)[C@H](NC(=O)[C@@H]1CCCN1C(=O)CNC(=O)[C@H](Cc1ccccc1)NC(=O)[C@H](Cc1c[nH]cn1)NC(=O)[C@H](Cc1c[nH]cn1)NC(=O)[C@H](CC(C)C)NC(=O)[C@H](Cc1ccccc1)NC(=O)[C@H](CCC(=O)O)NC(=O)[C@H](C)NC(=O)[C@H](CC(C)C)NC(=O)[C@H](CCCNC(=N)N)NC(=O)[C@H](C)NC(=O)[C@@H](NC(=O)[C@H](CCC(N)=O)NC(=O)[C@H](C)NC(=O)[C@@H](NC(=O)[C@H](CO)NC(=O)[C@H](CC(C)C)NC(=O)[C@H](CCC(=O)O)NC(=O)CNC(=O)[C@H](C)NC(=O)CC[C@H](NC(=O)CCCCCCCCCCCCCCCCC(=O)O)C(=O)O)[C@@H](C)O)[C@@H](C)O)C(=O)N[C@@H](CC(C)C)C(=O)N1CCC[C@H]1C(=O)N1CCC[C@H]1C(=O)N[C@H](C(=O)N[C@@H](CC(=O)O)C(=O)N[C@H](C(=O)NCC(=O)N[C@@H](CO)C(=O)N[C@@H](CCC(=O)O)C(=O)N[C@H](C(=O)N1CCC[C@H]1C(N)=O)[C@@H](C)O)C(C)C)[C@@H](C)O [Compound 16, N^1-[(4S)-4-carboxy-4-(17-carboxyheptadecanoylamino)butanoyl]-[Ala1,Gly2,Glu3,Leu4,Ser5,Ala7,Gln8,Ala10,Glu14,His17,Pro25,Pro28,Pro29,Asp31,Glu35,Pro37],des-(19-22)-human amylin] ({C18 diacid-γGlu}-AGELSTAQTARLAEFLHHFGPILPPTDVGSETP-NH2) | 95.8 | 35.59 | 0.48 | 1.25
3 | CC[C@H](C)[C@H](NC(=O)[C@@H]1CCCN1C(=O)CNC(=O)[C@H](Cc1ccccc1)NC(=O)[C@H](Cc1c[nH]cn1)NC(=O)[C@H](Cc1c[nH]cn1)NC(=O)[C@H](CC(C)C)NC(=O)[C@H](Cc1ccccc1)NC(=O)[C@H](CCC(=O)O)NC(=O)[C@H](C)NC(=O)[C@H](CC(C)C)NC(=O)[C@H](CCCNC(=N)N)NC(=O)[C@H](C)NC(=O)[C@@H](NC(=O)[C@H](CCC(N)=O)NC(=O)[C@H](C)NC(=O)[C@@H](NC(=O)[C@H](CO)NC(=O)[C@H](CC(C)C)NC(=O)[C@H](Cc1c[nH]cn1)NC(=O)[C@H](CO)NC(=O)[C@H](C)NC(=O)CC[C@H](NC(=O)CC[C@H](NC(=O)CCCCCCCCCCCCCCCCC(=O)O)C(=O)O)C(=O)O)[C@@H](C)O)[C@@H](C)O)C(=O)N[C@@H](CC(C)C)C(=O)N1CCC[C@H]1C(=O)N1CCC[C@H]1C(=O)N[C@H](C(=O)N[C@@H](CC(=O)O)C(=O)N[C@H](C(=O)NCC(=O)N[C@@H](CO)C(=O)N[C@@H](CCC(=O)O)C(=O)N[C@H](C(=O)N1CCC[C@H]1C(N)=O)[C@@H](C)O)C(C)C)[C@@H](C)O [Compound 17, N^1-[(4S)-4-carboxy-4-[[(4S)-4-carboxy-4-(17-carboxyheptadecanoylamino)butanoyl]amino]butanoyl]-[Ala1,Ser2,His3,Leu4,Ser5,Ala7,Gln8,Ala10,Glu14,His17,Pro25,Pro28,Pro29,Asp31,Glu35,Pro37],des-(19-22)-human amylin] ({C18 diacid-γGlu-γGlu}-ASHLSTAQTARLAEFLHHFGPILPPTDVGSETP-NH2) | 94.8 | 19.7 | 0.28 | 1.11
4 | CC[C@H](C)[C@H](NC(=O)[C@@H]1CCCN1C(=O)CNC(=O)[C@H](Cc1ccccc1)NC(=O)[C@H](CC(N)=O)NC(=O)[C@H](CC(=O)O)NC(=O)[C@H](CO)NC(=O)[C@H](CO)NC(=O)[C@H](Cc1c[nH]cn1)NC(=O)[C@H](Cc1c[nH]cn1)NC(=O)[C@H](CC(C)C)NC(=O)[C@H](Cc1ccccc1)NC(=O)[C@H](CCC(=O)O)NC(=O)[C@H](C)NC(=O)[C@H](CC(C)C)NC(=O)[C@H](CCCNC(=N)N)NC(=O)[C@H](C)NC(=O)[C@@H](NC(=O)[C@H](CCC(N)=O)NC(=O)[C@H](C)NC(=O)[C@@H](NC(=O)[C@H](CO)NC(=O)[C@H](CC(C)C)NC(=O)[C@H](CCC(N)=O)NC(=O)[C@H](CO)NC(=O)[C@H](C)NC(=O)CC[C@H](NC(=O)CCCCCCCCCCCCCCCCC(=O)O)C(=O)O)[C@@H](C)O)[C@@H](C)O)C(=O)N[C@@H](CC(C)C)C(=O)N1CCC[C@H]1C(=O)N1CCC[C@H]1C(=O)N[C@H](C(=O)N[C@@H](CC(=O)O)C(=O)N[C@H](C(=O)NCC(=O)N[C@@H](CO)C(=O)N[C@@H](CC(N)=O)C(=O)N[C@H](C(=O)N1CCC[C@H]1C(N)=O)[C@@H](C)O)C(C)C)[C@@H](C)O [Compound 22, N^1-[(4S)-4-carboxy-4-(17-carboxyheptadecanoylamino)butanoyl]-[Ala1,Ser2,Gln3,Leu4,Ser5,Ala7,Gln8,Ala10,Glu14,His17,Asp21,Pro25,Pro28,Pro29,Asp31,Pro37]-human amylin] ({C18 diacid-γGlu}-ASQLSTAQTARLAEFLHHSSDNFGPILPPTDVGSNTP-NH2) | 96.6 | 24.43 | 0.35 | 1.22
